Test results published in ChEMBL document CHEMBL6134863, “Novel Mitochondria-Targeted Asymmetric Heptamethine Cyanine Dye for Cancer Targeted NIR Imaging and Potent Necrosis and Senescence Induction with Prolonged Retention” (J Med Chem, 2025).
Active and inactive are the calls of the source. The rule behind the calls is not given here.

Assays:
[1] = Solubility of compound in DMSO-H2O; format: physicochemical
[2] = Partition coefficient, logP of compound; format: physicochemical; settings: octanol/water
[3] = Distribution coefficient, logD of compound; format: physicochemical; settings: octanol/water
[4] = Drug accumulation in tumor to muscle of BALB/c mouse implanted with mouse 4T1 cells at 0.5 mg/kg, iv measured at 4 to 168 hrs; format: ADME, organism-based; settings: in vivo, time 4-168 hrs
[5] = Ratio of drug level in tumor to muscle of BALB/c mouse implanted with mouse 4T1 cells at 0.5 mg/kg, iv measured at 12 to 24 hrs; format: ADME, organism-based; settings: in vivo, time 12-24 hrs
[6] = Drug uptake in human NCI-H226 cells assessed as increase in red fluorescence intensity at 5 uM incubated for 30 mins by CY7 staining based microscopic analysis; format: ADME, cell-based; settings: nci-h226, 0.5 h
[7] = Drug uptake in human NCI-H226 cells assessed as increase in green fluorescence intensity at 5 uM incubated for 30 mins by F-actin staining staining based microscopic analysis; format: ADME, cell-based; settings: nci-h226, 0.5 h
[8] = Drug uptake in mouse 4T1 cells assessed as increase in red fluorescence intensity at 5 uM incubated for 30 mins by CY7 staining based microscopic analysis; format: ADME, cell-based; settings: 4t1, 0.5 h
[9] = Drug uptake in mouse 4T1 cells assessed as increase in green fluorescence intensity at 5 uM incubated for 30 mins by F-actin staining staining based microscopic analysis; format: ADME, cell-based; settings: 4t1, 0.5 h
[10] = Photostability of compound in DMSO-H2O incubated for 1 hr irradiated with deuterium lamp by absorbance based analysis; format: physicochemical; settings: read-out: Stability
[11] = Stability of compound in DMSO-H2O incubated for 150 mins by absorbance based analysis; format: physicochemical; settings: 2.5 h
[12] = Antioxidant activity of compound in presence of ROS; format: functional
[13] = Antioxidant activity of compound in presence of RNS; format: functional
[14] = Antioxidant activity of compound in presence of RSS; format: functional
[15] = Antioxidant activity of compound in presence of Ca2+; format: functional
[16] = Antioxidant activity of compound in presence of Fe3+; format: functional
[17] = Antioxidant activity of compound in presence of NH4+; format: functional
[18] = Antioxidant activity of compound in presence of HSO3-; format: functional
[19] = Antioxidant activity of compound in presence of SO4; format: functional
[20] = Antioxidant activity of compound in presence of CO3; format: functional
[21] = Antioxidant activity of compound in presence of HCO3-; format: functional
[22] = Antioxidant activity of compound in presence of Cl-; format: functional
[23] = Antioxidant activity of compound in presence of Br-; format: functional
[24] = Antioxidant activity of compound in presence of H2O2-; format: functional
[25] = Antioxidant activity of compound in presence of ClO-; format: functional
[26] = Antioxidant activity of compound in presence of OH; format: functional
[27] = Antioxidant activity of compound in presence of TBHP; format: functional
[28] = Antioxidant activity of compound in presence of ONOO-; format: functional
[29] = Antioxidant activity of compound in presence of NO2; format: functional
[30] = Antioxidant activity of compound in presence of Glutathione; format: functional
[31] = Antioxidant activity of compound in presence of L-Cysteine; format: functional
[32] = Antioxidant activity of compound in presence of HCHO; format: functional
[33] = Antioxidant activity of compound in presence of […]; format: functional
[34] = Drug accumulation in BALB/c mouse tumor xenografted with human NCI-H520 cells assessed as increase in fluorescence intensity at 0.5 mg/kg, iv measured at 96 hrs by imaging based analysis; format: ADME, organism-based, Neoplasm; settings: in vivo
[35] = Cytotoxicity against human Primary lung fibroblast assessed as decrease in cell viability up to 5 uM incubated for 24 hrs by CCK-8 assay; format: toxicity, cell-based
[36] = Cytotoxicity against human Primary lung fibroblast assessed as decrease in cell viability up to 10 uM incubated for 24 hrs by CCK-8 assay; format: toxicity, cell-based
NCI-H226 = experiment: Cytotoxicity against human NCI-H226 assessed as decrease in cell viability up to 10 uM incubated for 24 hrs by CCK-8 assay; format: functional, cell-based
NIH3T3 = experiment: Cytotoxicity against mouse 3T3 cells assessed as decrease in cell viability up to 5 uM incubated for 24 hrs by CCK-8 assay; format: toxicity, cell-based; settings: nih3t3, 24 h
[37] = Drug uptake in human NCI-H226 cells assessed as increase in fluorescence intensity incubated for 24 hrs by fluorescence based microscopic analysis; format: ADME, cell-based; settings: nci-h226, 24 h
[38] = Drug localization in mitochondria of human NCI-H226 cell by MitoTracker Red based NIR confocal microscopic analysis; format: ADME
NCI-H250 = experiment: Antitumor activity against human […] cells xenografted in BALB/c mouse assessed as tumor growth inhibition 0.5 mg/kg, iv measured for 5 days; format: functional, organism-based; settings: time 5.0 day
[39] = Stability of compound in DMSO-H2O incubated for 1 hr by absorbance based analysis; format: physicochemical
[40] = Drug accumulation in BALB/c mouse tumor implanted with mouse 4T1 cells assessed as increase in fluorescence intensity at 0.5 mg/kg, iv measured at 48 hrs by imaging based analysis; format: ADME, organism-based, Neoplasm; settings: in vivo
4T1 = experiment: Antitumor activity against mouse 4T1 cells implanted in BALB/c mouse assessed as tumor growth inhibition 5 mg/kg, iv measured for 11 days; format: functional; settings: 4T1, 264 h, time 11 day, read-out: TGI
[41] = Toxicity in BALB/c mouse implanted with mouse 4T1 cells assessed as survival rate at 5 mg/kg, iv measured for 11 days; format: organism-based; settings: in vivo, time 11 day

## CCCN1/C(=C/C=C2\CCCC(/C=C/C3=[N+](CCCOc4ccc(C(=O)O)cc4)c4ccccc4C3(C)C)=C2Cl)C(C)(C)c2ccccc21.[Br-]
[1]
  solubility: 170 µg/mL
[2]
  logP: 6.21
[3]
  logD: 4.63
[4]
  Drug uptake: Active
[5]
  Ratio: > 5
[6]
  Drug uptake: Not_active
[7]
  Drug uptake: Not_active
[8]
  Drug uptake: Not_active
[9]
  Drug uptake: Not_active
[10]
  remaining at 1 h: 89.4%
[11]
  Stability: Stable
[12]
  Activity: Active
[13]
  Activity: Active
[14]
  Activity: Active
[15]
  Activity: Active
[16]
  Activity: Active
[17]
  Activity: Active
[18]
  Activity: Active
[19]
  Activity: Active
[20]
  Activity: Active
[21]
  Activity: Active
[22]
  Activity: Active
[23]
  Activity: Active
[24]
  Activity: Active
[25]
  Activity: Active
[26]
  Activity: Active
[27]
  Activity: Active
[28]
  Activity: Active
[29]
  Activity: Active
[30]
  Activity: Active
[31]
  Activity: Active
[32]
  Activity: Active
[33]
  Activity: Active
[34]
  Drug uptake: Active
[35]
  Activity: Non-toxic
[36]
  Activity: Non-toxic
NCI-H226
  Activity: Active
NIH3T3
  Activity: > 80%
[37]
  Drug uptake: Active
[38]
  Drug uptake: Active
NCI-H250
  TGI: Active

## CCN1/C(=C/C=C2\CCCC(/C=C/C3=[N+](CCCOc4ccc(C(=O)O)cc4)c4ccccc4C3(C)C)=C2Cl)C(C)(C)c2ccccc21.[Br-]
[1]
  solubility: 170 µg/mL
[2]
  logP: 6.05
[3]
  logD: 4.34
[4]
  Drug uptake: Active
[5]
  Ratio: > 5
[6]
  Drug uptake: Active
[7]
  Drug uptake: Active
[8]
  Drug uptake: Active
[9]
  Drug uptake: Active
[10]
  remaining at 1 h: 96.9%
[39]
  Stability: Stable
[11]
  Stability: Stable
[12]
  Activity: Active
[13]
  Activity: Active
[14]
  Activity: Active
[15]
  Activity: Active
[16]
  Activity: Active
[17]
  Activity: Active
[18]
  Activity: Active
[19]
  Activity: Active
[20]
  Activity: Active
[21]
  Activity: Active
[22]
  Activity: Active
[23]
  Activity: Active
[24]
  Activity: Active
[25]
  Activity: Active
[26]
  Activity: Active
[27]
  Activity: Active
[28]
  Activity: Active
[29]
  Activity: Active
[30]
  Activity: Active
[31]
  Activity: Active
[32]
  Activity: Active
[33]
  Activity: Active
[40]
  Drug uptake: Active
[34]
  Drug uptake: Active
[35]
  Activity: Non-toxic
[36]
  Activity: Non-toxic
NCI-H226
  Activity: Active
NIH3T3
  Activity: > 80%
[37]
  Drug uptake: Active
[38]
  Drug uptake: Active
NCI-H250
  TGI: Active
4T1
  inhibition in vivo at 5 mg/kg: ~60%
[41]
  survival at 264 h: 100%
